Experimental data published in PubChem BioAssay (NCI).
Where “and” joins values, the source holds several entries; their conditions need not be identical. Equal entries are not always repeated.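 Following 48 hours of exposure in 96-well plates, responses at five concentrations were used to interpolate endpoints linearly. GI50 is the concentration that inhibits growth by half. At the TGI there is no net growth.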

Tests used:
Assay in all cases: NCI tumour cell line growth inhibition, 48 h
[1] = system: SF-268 CNS
[2] = system: RPMI-8226 leukemia
[3] = system: HOP-92 NSCLC
[4] = system: SN12C renal
[5] = system: COLO 205 colon
[6] = system: NCI-H460 lung
[7] = system: MCF7 breast
[8] = system: K-562 leukemia
[9] = system: MOLT-4 leukemia
[10] = system: TK-10 renal

| Compound | GI50 [1] | TGI [1] | GI50 [2] | GI50 [3] | TGI [3] | GI50 [4] | TGI [4] | GI50 [5] | GI50 [6] | TGI [6] | GI50 [7] | TGI [7] | GI50 [8] | TGI [8] | GI50 [9] | TGI [9] | GI50 [10] | TGI [10] | TGI [2] | TGI [5] |
| --- | --- | --- | --- | --- | --- | --- | --- | --- | --- | --- | --- | --- | --- | --- | --- | --- | --- | --- | --- | --- |
| CCN1C(=O)N(CC)C2C1NN=c1s/c(=C\c3ccc(Br)cc3)c(=O)n12 (stereo not drawn) | 0.852 µM | > 100 µM | 0.269 µM | 0.0365 µM | > 63.7 µM | 0.512 µM | > 100 µM | 0.258 µM | 0.119 µM | > 100 µM | 0.0443 µM | > 100 µM | 0.0453 µM | > 100 µM | 0.392 µM | > 100 µM | 0.741 µM | > 100 µM |  |  |
| CC1(/C=C/c2ccc(-c3ccccc3)cc2)CCn2cnc3ncnc(c32)N1O (stereo not drawn) | 0.405 µM | 15.8 µM | 0.467 µM | 3.72 µM | 65.6 µM | 0.508 µM | 40.7 µM | 0.326 µM | 0.264 µM | 8.25 µM | 0.342 µM | > 69.4 µM | 0.359 µM | > 66.7 µM | 0.347 µM | 27.9 µM | 0.492 µM | > 100 µM | 22.7 µM | 32.8 µM |
| COc1ccc(COc2ccc(Cc3cnc(N)nc3N)cc2OC)cc1 | > 25 µM | > 25 µM | > 19.9 µM | 1.29 µM | > 21 µM | > 25 µM | > 25 µM | 4.27 µM | > 22.1 µM | > 25 µM | 11.7 µM | > 25 µM | 8.19 µM | > 25 µM | > 25 µM | > 25 µM | > 25 µM | > 25 µM | > 25 µM | 8.15 µM |
| OCC1OC(N2CCN(C3OC(CO)C(O)C(O)C3O)CC2)C(O)C(O)C1O (stereo not drawn) |  | > 100 µM |  |  | > 100 µM |  | > 100 µM |  |  | > 100 µM |  | > 100 µM |  | > 100 µM |  | > 100 µM |  | > 100 µM | > 100 µM | > 100 µM |
| NS(=O)(=O)c1ccc(NC(=O)Nc2cccc3ccccc23)cc1 |  | 39.3 µM |  |  | > 100 µM |  | > 100 µM |  |  | > 100 µM |  | > 100 µM |  | > 100 µM |  | > 100 µM |  | > 100 µM | > 100 µM | > 100 µM |
| Cc1cccc(Nc2ncc(-c3ccccc3)o2)c1 | > 25 µM | > 25 µM | > 25 µM | > 25 µM | > 25 µM | > 25 µM | > 25 µM | > 25 µM | > 25 µM | > 25 µM | 12.9 µM | > 25 µM | > 25 µM | > 25 µM | > 25 µM | > 25 µM | > 25 µM | > 25 µM | > 25 µM | > 25 µM |
| c1ccc(OCC[P+](c2ccccc2)(c2ccccc2)c2ccccc2)cc1 | 2.05 µM | 13.5 µM | 0.187 µM | 0.312 µM | 3.06 µM | 1.94 µM | 16.4 µM | 0.549 µM | 1.35 µM | 10.4 µM | 1.24 µM | 11.1 µM | 0.743 µM | > 85.5 µM | 3.89 µM | 27.2 µM | 1.73 µM | 14.5 µM | 2.14 µM | 2.02 µM |
| N/C(=N/O)NOCCC(N)C(=O)O (stereo not drawn) | > 100 µM | > 100 µM | > 100 µM | > 100 µM | > 100 µM | > 100 µM | > 100 µM | > 100 µM | > 100 µM | > 100 µM | > 100 µM | > 100 µM | > 100 µM | > 100 µM | > 100 µM | > 100 µM | > 100 µM | > 100 µM | > 100 µM | > 100 µM |
| Cn1cc(-c2[nH]c3cc(NC(=O)[C@H](N)C4CCCCC4)cc4c3c2C=NNC4=O)cn1 | 0.305 µM and 0.324 µM | 13.1 µM and > 10 µM | 3.18 µM and 3.24 µM | 0.0783 µM and 0.2 µM | 0.821 µM and > 4.52 µM | 0.56 µM and 0.55 µM | 13.4 µM and > 10 µM | 0.922 µM and 0.632 µM | 4.11 µM and 3.59 µM | 19.9 µM and > 10 µM | 0.211 µM and 0.209 µM | 15.8 µM and > 10 µM | 0.193 µM and 0.205 µM | 1.78 µM and > 10 µM | 0.287 µM and 0.334 µM | 0.797 µM and > 6.55 µM | 0.675 µM and 0.467 µM | 12.7 µM and > 10 µM | 11.5 µM and > 10 µM | 3.6 µM and > 6.26 µM |
| CC(=O)OCc1cc[c]([Hg][Cl])o1 | 8.78 µM | 21.8 µM | 4.69 µM | 2.51 µM | 6.36 µM | 5.24 µM | 29.9 µM | 1.63 µM | 15.5 µM | 45.6 µM | 0.994 µM | 18.3 µM | 0.991 µM | 10.3 µM | 2.07 µM | 8.46 µM | 2.72 µM | 5.89 µM | 34.9 µM | 3.29 µM |
| Cc1ccccc1N=C(c1ccccc1)C1C(=O)c2ccccc2C1=O | 13.3 µM | 40.2 µM | 4.27 µM | 14.4 µM | 53.8 µM | 19.9 µM | > 100 µM | 13.8 µM | 6.91 µM | 38 µM | 1.48 µM | 19.3 µM | 25.6 µM | > 100 µM | 9.98 µM | 35.7 µM | 8.43 µM | 38.5 µM | 27 µM | 38.5 µM |
| COc1ccc(C2CC(=O)Nc3c2c(C)nn3-c2nc3ccccc3[nH]2)cc1OC (stereo not drawn) | 5.07 µM | > 69.5 µM | 3.08 µM | 6.01 µM | 35.1 µM | 5.96 µM | 35.5 µM | 9.36 µM | 3.46 µM | 16.2 µM | 3.78 µM | > 100 µM | 4.81 µM | > 100 µM | 0.0405 µM | 0.27 µM | 8.95 µM | 93.5 µM | 8.68 µM | 40.7 µM |
| CN1CCN(CCCn2c3c(sc4ncccc43)c(=O)n3nnc(-c4ccccc4)c23)CC1 | 1.68 µM | 3.32 µM | 2.08 µM | 9.5 µM | 28.4 µM | 14.5 µM | 28.8 µM | 4.33 µM | 1.65 µM | 3.37 µM | 1.72 µM | 3.16 µM | 0.593 µM | 1.56 µM | 0.889 µM | 2.86 µM | 3.15 µM | 10.7 µM | 5.3 µM | 9.07 µM |
